Measurements taken from patent US11613558B2, “Peptides and pharmaceutical compositions for treating eye diseases” (Yuyu Pharma, Inc., priority 2018, dated 2023).
Square brackets hold non-standard residues; d marks the D form. Peptide text beside a SMILES is read from it. ξ: configuration not given here. Hyp = O=C(O)[C@@H]1C[C@@H](O)CN1; Ile(3ξ) = CCC(C)[C@H](N)C(=O)O; Thr(3ξ) = CC(O)[C@H](N)C(=O)O

Columns and labels:
[1] = tested on: rats with dry eye syndrome (extraorbital lacrimal gland excision, ELGE); experiment: Amount of tear secretion (Schirmer test, cobalt chloride paper) in ELGE rats with dry eye syndrome; assay type: in vivo, rat; conditions: for Tear Volumes, Day 7 / Tear Volumes, Day 14: ELGE rats, 3 mg/ml, 5 μl/eye twice daily; for Tear Volumes, Day 7: day 7 of administration; for Tear Volumes, Day 14: day 14 of administration; for Change in amount of tear secretion as compared with the ELGE control group: 3% solution as printed, after administration for 14 days
Excerpt: (§1) In order to evaluate the eye protection effect on dry eye syndrome by YDE-001 to YDE-028 prepared in Example 1, a total of 320 Sprague-Dawley-type male rats (OrientBio, Seungnam, Korea) were adapted for 7 days. Thereafter, dry eye syndrome was induced in 264 test rats through extraorbital lacrimal gland excision (hereinafter, ELGE). 8 test rats without the eye abnormality were subjected to a sham operation as a control group.
(§2) The rat was systemically anesthetized by inhaling a mixed gas of 2% to 3% of isoflurane (Hana Pharm. Co., Hwasung, Korea), 70% of N2O, and 28.6% of O2 using a rodent anesthesia machine (Surgivet, Waukesha, Wis., USA) and a ventilator (Model 687, Harvard Apparatus, Cambridge, UK). Thereafter, the extraorbital lacrimal gland located in the subdermal area above the masseter muscle and […] was excised through a transverse incision in a size of 10 mm on the anterior part of the left ear tragus. The skin was sutured by a general method. […] After 6 days from the ELGE operation, it was checked through the Schirmer test by measuring the amount of tear secretion whether dry eye syndrome had been induced. Meanwhile, each rat of the control group with the sham operation was checked for the presence and location of the extraorbital lacrimal gland through a skin incision, and the skin was then sutured without the excision thereof (FIG. 4).
(§3) In addition, in order to evaluate the eye protection effect on dry eye syndrome by YDE-029 to YDE-043 prepared in Example 1, a total of 200 Sprague-Dawley-type male rats (OrientBio, Seungnam, Korea) were adapted for 7 days. Dry eye syndrome was induced in 165 test rats through the ELGE. 8 test rats without the eye abnormality were subjected to the sham operation as a control group. The ELGE was carried out as described above.
(§4) For YDE-001 to YDE-028, YY-102 and the 28 YDE-series were each dissolved in physiological saline at a concentration of 3 mg/ml and administered at a dose of 5 μl/eye at 9:30 am and 3:30 pm daily for 14 days after 7 days from the ELGE operation for a total of 28 times. The DS solution was dissolved in physiological saline at a concentration of 30 mg/ml and administered at a dose of […] twice a day for 14 days after 7 days from the ELGE operation for a total of 28 times. For the sham control and the ELGE control groups, the same stimulation as the administration was applied. In order to prevent excessive eye dryness, the same volume of physiological saline was applied in the same manner in place of the test substances.
as §4, with “Further, for YDE-029 to YDE-043,” for “For YDE-001 to YDE-028,”, “YDE-029 to YDE-043, YY-102 and” for “YDE-001 to YDE-028, YY-102 and”, “and the 15 YDE-series were” for “and the 28 YDE-series were”, “the test substances (FIG. 7).” for “the test substances.”
After 6 days from the ELGE surgery, the changes in the amount of tear secretion were measured at day 7 and day 14 after the administration of YDE-001 to YDE-043. The amount of tear secretion was measured by the […] travel distance of tears absorbed by cobalt chloride paper in a size of 1×15 mm (Toyo Roshi Kaisha, Japan).
The cobalt chloride paper was placed in the lateral canthus of a rat for 60 seconds to absorb tears (FIG. 9). The length of the area absorbed from the corner of the cobalt chloride paper was measured with an electronic digital caliper (Mytutoyo, Tokyo, Japan) (FIG. 8).

[2] = tested on: cornea of rats with dry eye syndrome (ELGE); experiment: Corneal permeability of fluorescent dye (corneal damage) in ELGE rats with dry eye syndrome; assay type: in vivo, rat; conditions: 5 μl/eye twice daily, day 14
Excerpt: as §1, §2, §3, §4
as §4, with “Further, for YDE-029 to YDE-043,” for “For YDE-001 to YDE-028,”, “YDE-029 to YDE-043, YY-102 and” for “YDE-001 to YDE-028, YY-102 and”, “and the 15 YDE-series were” for “and the 28 YDE-series were”, “the test substances (FIG. 7).” for “the test substances.”
After YDE-001 to YDE-028 were each administered to the eyes […], the changes in the corneal permeability were checked.
In order to measure the corneal permeability, Zolethyl 50™ (Virbac Lab., Carros, France), an animal anesthetic, was intraperitoneally injected at a dose of 25 mg/kg. Thereafter, saline containing a 1% (v/v) fluorescent solution (fluorescein sodium salt, Tokyo Kasei Kogyo Co., Tokyo, Japan) was applied to the eyes at a dose of 5 μl/eye. The eyes thus treated were closed and fixed with a tape. After 1 hour, the remaining fluorescent solution was removed using a cotton swab (FIG. 12). […]

[3] = Stability in aqueous solution under long-term storage conditions (related substances); assay type: physicochemical; conditions: 25° C., 75% RH
Protocol: In order to confirm the stability of each test substance in an aqueous solution, […] of each sample was dissolved in 1 ml of water to a concentration of 1 mg/ml, which was then charged to a glass vial, plugged with a rubber cap, sealed with an aluminum cap, and stored under long-term storage conditions (25° C., 75% RH). The stability of the test substance was evaluated by measuring the amount of related substances at the time of one week, two weeks, four weeks, eight weeks, and twelve weeks under the long-term storage conditions.

[4] = Table 4, study of YDE-001 to YDE-028
[5] = Table 6, study of YDE-001 to YDE-028, 3 mg/ml
[6] = Table 5, study of YDE-029 to YDE-043
[7] = Table 7, study of YDE-029 to YDE-043, 3 mg/ml

SMILES	Tear Volumes, Day 7 [1, 4]	Tear Volumes, Day 14 [1, 4]	Permeability of fluorescent dye [2, 5]	Amount of related substances (after 12 weeks) [3]	Change in amount of tear secretion as compared with the ELGE control group ([1]; study of YDE-001 to YDE-028)	Tear Volumes, Day 7 [1, 6]	Tear Volumes, Day 14 [1, 6]	Change in amount of tear secretion as compared with the ELGE control group ([1]; study of YDE-029 to YDE-043)	Permeability of fluorescent dye [2, 7]
CCC(C)[C@H](NC(=O)[C@H](CC(=O)O)NC(=O)[C@H](CCC(N)=O)NC(=O)CNC(=O)[C@@H]1C[C@@H](O)CN1)C(=O)N[C@@H](CC(C)C)C(=O)N[C@@H](C)C(=O)NCC(=O)N1CCC[C@H]1C(=O)N[C@@H](CCCCN)C(=O)O (stereo partly shown) [YDE-016] (H-[Hyp]GQD[Ile(3ξ)]LAGPK-OH)	4.59 ± 1.13 mm^3	5.98 ± 2.27 mm^3	24.57 ± 10.34%	11.33%	–	–	–	–	–
CC(C)C[C@H](NC(=O)[C@H](Cc1c[nH]cn1)NC(=O)[C@H](CC(=O)O)NC(=O)[C@H](CCC(N)=O)NC(=O)CNC(=O)[C@@H]1C[C@@H](O)CN1)C(=O)N[C@@H](C)C(=O)NCC(=O)N1CCC[C@H]1C(=O)N[C@@H](CCCCN)C(=O)O [YDE-022] (H-[Hyp]GQDHLAGPK-OH)	3.19 ± 0.67 mm^3	4.10 ± 0.95 mm^3	47.82 ± 10.01%	19.23%	did not show any significant changes	–	–	–	–
COC(=O)C[C@H](NC(=O)[C@H](CCC(N)=O)NC(=O)CNC(=O)[C@@H]1C[C@@H](O)CN1)C(=O)NCC(=O)N[C@@H](CC(C)C)C(=O)N[C@@H](C)C(=O)NCC(=O)N1CCC[C@H]1C(=O)N[C@@H](CCCCN)C(=O)O [YDE-027] (H-[Hyp]GQD(OMe)GLAGPK-OH)	2.82 ± 0.86 mm^3	3.95 ± 1.52 mm^3	50.24 ± 11.94%	12.74%	did not show any significant changes	–	–	–	–
CC(C)C[C@H](NC(=O)[C@@H](NC(=O)[C@H](CC(=O)O)NC(=O)[C@H](CCC(N)=O)NC(=O)CNC(=O)[C@@H]1C[C@@H](O)CN1)C(C)O)C(=O)N[C@@H](C)C(=O)NCC(=O)N1CCC[C@H]1C(=O)N[C@@H](CCCCN)C(=O)O (stereo partly shown) [YDE-024] (H-[Hyp]GQD[Thr(3ξ)]LAGPK-OH)	3.85 ± 1.30 mm^3	5.72 ± 1.36 mm^3	30.63 ± 10.41%	20.59%	–	–	–	–	–
CC(C)C[C@H](NC(=O)[C@H](CC(C)C)NC(=O)[C@H](CC(=O)O)NC(=O)[C@H](CCC(N)=O)NC(=O)CNC(=O)[C@@H]1C[C@@H](O)CN1)C(=O)N[C@@H](C)C(=O)NCC(=O)N1CCC[C@H]1C(=O)N[C@@H](CCCCN)C(=O)O [YDE-017] (H-[Hyp]GQDLLAGPK-OH)	4.00 ± 1.22 mm^3	4.89 ± 1.50 mm^3	39.76 ± 7.42%	11.88%	did not show any significant changes	–	–	–	–
CC(C)C[C@H](NC(=O)[C@H](CO)NC(=O)[C@H](CC(=O)O)NC(=O)[C@H](CCC(N)=O)NC(=O)CNC(=O)[C@@H]1C[C@@H](O)CN1)C(=O)N[C@@H](C)C(=O)NCC(=O)N1CCC[C@H]1C(=O)N[C@@H](CCCCN)C(=O)O [YDE-023] (H-[Hyp]GQDSLAGPK-OH)	5.32 ± 2.30 mm^3	5.78 ± 2.23 mm^3	26.51 ± 8.18%	30.66%	–	–	–	–	–
CC(C)C[C@H](NC(=O)CNC(=O)[C@H](CC(C)C)NC(=O)[C@H](CCC(N)=O)NC(=O)CNC(=O)[C@@H]1C[C@@H](O)CN1)C(=O)N[C@@H](C)C(=O)O [YDE-041] (H-[Hyp]GQLGLA-OH)	–	–	–	3.04%	–	5.01 ± 1.26 mm^3	6.25 ± 2.15 mm^3	did not show any significant changes	46.38 ± 26.65%
CC(C)C[C@H](NC(=O)CNC(=O)[C@H](CC(C)C)NC(=O)[C@H](CCC(N)=O)NC(=O)CNC(=O)[C@@H]1C[C@@H](O)CN1)C(=O)N[C@@H](C)C(=O)NCC(=O)N1CCC[C@H]1C(=O)N[C@@H](CCC(=O)O)C(=O)O [YDE-031] (H-[Hyp]GQLGLAGPE-OH)	–	–	–	34.82%	–	5.63 ± 1.97 mm^3	5.91 ± 0.85 mm^3	–	33.35 ± 11.01%
CC(C)C[C@H](NC(=O)CNC(=O)[C@H](CC(C)C)NC(=O)[C@H](CCC(N)=O)NC(=O)CNC(=O)[C@@H]1C[C@@H](O)CN1)C(=O)N[C@@H](C)C(=O)NCC(=O)N1CCC[C@H]1C(=O)N[C@@H](CCC(N)=O)C(=O)O [YDE-032] (H-[Hyp]GQLGLAGPQ-OH)	–	–	–	6.16%	–	5.58 ± 0.80 mm^3	5.03 ± 0.93 mm^3	did not show any significant changes	58.90 ± 19.81%
CC(C)C[C@H](NC(=O)CNC(=O)[C@H](CC(C)C)NC(=O)[C@H](CCC(N)=O)NC(=O)CNC(=O)[C@@H]1C[C@@H](O)CN1)C(=O)N[C@@H](C)C(=O)NCC(=O)N1CCC[C@H]1C(=O)N[C@@H](Cc1ccc(O)cc1)C(=O)O [YDE-029] (H-[Hyp]GQLGLAGPY-OH)	–	–	–	2.77%	–	5.33 ± 1.43 mm^3	6.03 ± 1.71 mm^3	did not show any significant changes	63.45 ± 11.57%
